This is an account of results in patent US20160324738A1, “Oral Compositions Containing Stannous” (The Procter & Gamble Company, priority 2015, published 2016).

The experiment in a line: In-vitro pH cycling study of enamel fluoride uptake (enamel fluoridation). The conditions noted are these: both salts at levels providing 1100 ppm of fluoride ion; versus sodium fluoride. Set-up: species or system human. On the procedure: An in-vitro pH cycling study was conducted to evaluate the effect of excess metals and its modulation on fluoride uptake in pre-demineralized human enamel specimens.

For `[F][Sn][F]` [stannous fluoride], the enamel fluoridation entry is “less than what is typically seen with sodium fluoride”.
